Assay results: patent publication US9999614B2, “Combination for the prophylaxis and treatment of behavioural, mental, and cognitive disorders” (LTD “VALENTA-INTELLEKT”, priority 2012, dated 2018)

Tested on: amnesia in mice, as caused by scopolamine
Experiment: CPAR, model of amnesia caused by scopolamine
Format: in vivo
Conditions: scopolamine 1 mg/kg i.p.
Experimental: For this, the active substances Melatonin 3 mg/Memantin 10 mg, Melatonin 5 mg/Memantin 20 mg, Melatonin 10 mg/Memantin 20 mg were taken, and doses recommended for human beings were converted into doses adapted for mice according to the formula “(active substance/70(average weight of a human being))×7”. Then the compositions were dissolved in 5 mL of the solution and, according to the given formula, introduced to animals intraperitoneally once a day for 5 days.
The CPAR test is the main model for evaluating substance influences on formation and replication of short-time memory in a normal condition and in an abnormal condition, i.e., induced amnesia. The CPAR is the most informative method among the methods that are used today for evaluating efficiency of substances with influence on the CNS of mammals (see, “Manual for Experimental (Pre-Clinical) Studies of New Pharmacological Substances”, 2000). The CPAR (conditioned passive avoidance reflex in a dark, light chamber) was taught to the mice on the basis of electrodermal response according to the method proposed by Cumin et al. (1982) with due regard to the recommendations given by Mondadori et al. (1990). The installation for mice, as produced by Lafayette Instrument Co., USA, was a black chamber with the electrode floor and a white plastic platform that was arranged on the floor in the center of the chamber. The mice, one by one, were put onto the plastic platform. The animals went/jumped down onto the electrode floor where they received an electric current shock, i.e., punishment. Electric current was supplied after the time when an animal stood on the floor with all its four legs. The natural response of the animals is to go back to the current-free or safe platform. […] Tests for memorizing CPAR were conducted in successive time intervals after amnesic action. In a case where an animal went/jumped down onto the platform within 1 minute, it was recorded as having retrograde amnesia of the passive avoidance skill. The compositions were studied in comparison with Melatonin 5 mg (mono-use) and Memantin 10 mg (mono-use), according to the above formula for adapting to animal models.
The compositions under study were dissolved in 5 mL of the solution and, according to the above formula, introduced to the animals intraperitoneally, once a day for 5 days.

[1] = 1 day after teaching, Melatonin 5 mg, Memantin 10 mg mono-use

## CN1[C@@H]2C[C@@H](OC(=O)[C@H](CO)c3ccccc3)C[C@H]1[C@@H]1O[C@@H]12 [Scopolamine]
[1]
  Latent time of entering into the dark chamber: 72.3 ± 25.6 s
  Number of mice not entered into the dark chamber, %: 25%
3 days after teaching, Melatonin 5 mg, Memantin 10 mg mono-use
  Number of mice not entered into the dark chamber, %: 33.3%
7 days after teaching, Melatonin 5 mg, Memantin 10 mg mono-use
  Number of mice not entered into the dark chamber, %: 41.6%
10 days after teaching, Melatonin 5 mg, Memantin 10 mg mono-use
  Number of mice not entered into the dark chamber, %: 50%
In 24 hours, p<0.001
  CPAR amnesia observed, % of the animals: 90%
Agents i.p. once a day for 5 days, Melatonin 5 mg, Memantin 10 mg mono-use
  Number of mice taught to CPAR (%): 58.3%
